The values that follow come from paper PMC5343495 (Scientific Reports, 2017).

Broadly, the inhibition is the relative decrease from the control value, in per cent. In general, IC50 refers to the point on the concentration scale where inhibition reaches its midpoint. Broadly, the Kd is a measure of binding affinity in units of concentration.

SMILES strings stand for the structures. Entries after “also recorded” stand apart in the source; their conditions may differ. Like-named read-outs stand apart in the source and are kept apart here.

For data set [1], the system named is washed platelets. Nature of the data set: Inhibition of thrombin-induced platelet aggregation (turbidimetric method). In kind it is cell-based, rabbits. Particulars: BBR 0.83, 2.50 and 7.50 μM, 5 min at 37 °C, 0.5 U/ml thrombin.
Description: PRP was obtained by centrifugation of collected blood at 190 g for 10 min. The platelets were isolated from PRP by centrifugation for 10 min at 650 g, resuspended and washed twice in Ca^2+-free Tyrode’s buffer (138 mM NaCl, 2.68 mM KCI, 11.9 mM NaHCO3, 0.36 mM NaH2PO4, 0.49 mM MgSO4, 5.5 mM glucose, pH7.5)[42]. Washed platelets were then resuspended in Tyrode’s buffer including 1.8 mM CaCl2 at a density of 2 × 10^7 platelets/ml.
Aggregation was initiated by the addition of 10 μL of thrombin (final concentrations of 0.5 U/ml). Aggregation was recorded at 37 °C for 5 min using a four-channel platelet aggregation analyser (LBY-NJ4, Beijing Precil Instrument Co., Ltd., China). Platelet aggregation inhibitory percentage was calculated using the following equation: Inhibitory percentage (%) = (1 − At/A0) × 100%. At is the platelet aggregation percentage of the test sample, and A0 is the platelet aggregation percentage of the control sample.
Data set [2] addresses T1, Thrombin from human plasma (Homo sapiens, UniProt P00734).
T1 construct: Thrombin, a multifunctional serine protease generated by prothrombin cleavage; purchased Sigma-Aldrich Chemical Co. (St. Louis, MO, USA) T6884; host or cells: human plasma
Nature of the data set: SPR competitive binding assay of BBR with argatroban (ABA method, Biacore S200). The note with it: 300 μM BBR; 30, 60 or 120 μM argatroban. The procedure: The response units were measured before the end of injection.

In data set [3] the test system is HEK293 cells. The data set can be described thus: Luciferase-coupled ATP quantitative assay (CellTiter-Glo cytotoxicity). The format is cell-based. Particulars: incubation 24, 48 or 72 hours. For orientation: Cellular ATP, detected with luciferase, serves as a proxy for viable cell number.
Description: HEK293 cells were seeded at 5.0 × 10^3 per well into 96-well clear-bottom black plates and incubated in 5% CO2 at 37 °C overnight. […] Luminescence was determined with an Envision 2100 multilabel reader to detect viability following incubation with CellTiter-Glo reagent for 15 min.
Data set [4] deals with T2, thrombin (Homo sapiens, UniProt P00734).
T2 construct: Thrombin, a multifunctional serine protease generated by prothrombin cleavage; purchased AnaSpec, Inc., San Jose, CA
Nature of the data set: Thrombin inhibition assay (SensoLyte 520 FRET substrate kit). The format is biochemical. The note with it: read-out: inhibition relative to the positive control.
Description: To evaluate the thrombin-inhibitory activity of the hits, a fluorescence assay utilizing a SensoLyte 520 Thrombin Activity Assay Kit (AnaSpec, Inc., San Jose, CA) was performed following the manufacturer’s instructions. This kit contained a novel 5-FAM/QXL 520 (fluorophore/quencher pair) FRET modified substrate (approximately 6 amino acids) that can be cleaved by thrombin at the Arg-Gly (R-G) site. The FRET substrate can be cleaved into two separate fragments, resulting in the release of 5-FAM fluorescence, which can be monitored at an excitation/emission = 490 nm/520 nm[37]. […]
Ten microlitres of compound solution (300 μM in assay buffer) and 40 μL thrombin solution (0.33 μg/ml in assay buffer) were sequentially added to each well of a black, flat- bottom, non-binding 96-well plate (Corning #3650, Corning, NY). […] After incubation, the fluorescence (excitation 490 nm, emission 520 nm) of each mixture was detected with a 2104 EnVision Multilabel Reader (PerkinElmer).
For enzymatic reaction, the thrombin solution treated with vehicle buffer alone was used as negative control. […] All fluorescence readings are taken into account in relative fluorescence units (RFU). The experimental data were analyzed by GraphPad Prism software (version 5, Graphpad Software Incorporation, USA).

Data set [5] addresses T2, thrombin. Also on record: method as in PMID 12646027, PMID 19674897, PMID 18674905, PMID 18289852, PMID 18052026. Particulars: training set for pharmacophore generation; cited from earlier work.
For data set [6], the target named is T1, Thrombin from human plasma. Nature of the data set: SPR binding affinity measurement (Biacore T200, thrombin-immobilized CM5 chip). (In general: In SPR one partner is held on a chip, and binding of the other changes the refractive index at the surface.)
Description: SPR binding studies were performed using a Biacore T200 biosensor system (GE Healthcare, Uppsala, Sweden).
Thrombin was diluted in 10 mM sodium acetate buffer at pH 5.0 and immobilized on a CM5 chip using an amine coupling kit. […] A total of 8419 RU of immobilized proteins was obtained. Sensor preparation and interaction analyses were performed at 25 °C in a PBS-P [10 mM phosphate buffer, 137 mM NaCl, 2.7 mM KCl, 0.05% P20 (pH 7.4)] running buffer containing 5% DMSO.
Solvent-correction procedures were included to compensate for any DMSO-related bulk refractive index variations. Reference flow cell without immobilized thrombin served as a non-specific binding control. Biacore traces were baseline subtracted and the signal was presented in sensorgrams and measured in RU. […] Equilibrium constants (KD) were calculated using the ‘affinity’ model in Biacore T200 evaluation software version 2.0.
Where [7] appears, read: Table 2, SPR, immobilized thrombin, read-out: KD.

Regarding `COc1ccc2cc3[n+](cc2c1OC)CCc1cc2c(cc1-3)OCO2` [BBR, Berberine], the “effect on thrombin-induced platelet aggregation” value in data set [1] is “had the ability to inhibit thrombin-induced platelet aggregation; also recorded: significantly prevented platelet aggregation”. Also, the “competitive binding with argatroban to thrombin” value in data set [2] is “could bind to the same argartroban/thrombin interaction site”. In addition, the cytotoxicity entry in data set [3] was “no significant cytotoxicity; also recorded: without cytotoxicity”. The inhibition at 30 µM in data set [4] is not below 50%. Turning to `NC1CCC(CNC(=O)C2CCCN2C(=O)C(N)C(c2ccccc2)c2ccccc2)CC1` (centres unmarked) [CHEMBL269744], in data set [5], the concentration for half-maximal inhibition (IC50) is 0.0001 µM.

In turn, `O=C(O)c1cc(O)c(O)c(O)c1` [Gallic acid] showed a Kd in data set [6] of more than 200 µM. With `O=C1c2ccccc2C(=O)c2c(O)c(O)cc(O)c21` [Hydroxyalizarin, reference compound], in data set [6] (setting [7]), the Kd was more than 200 µM.

Turning to `CC1(C)CCC[C@](C)([C@H]2CC[C@]3(C)[C@@H]2[C@H](O)C[C@@H]2[C@@]4(C)CC[C@H](O)C(C)(C)[C@@H]4[C@@H](O)C[C@]23C)O1` [Panaxatriol], the Kd in data set [6] (setting [7]) was more than 200 µM.
